Laboratory results taken from ChEMBL document CHEMBL1142393, “Design and characterization of mechanism-based inhibitors for the tyrosine aminomutase SgTAM” (Bioorg Med Chem Lett, 2008).

Experiment: Inhibition of Streptomyces globisporus TAM

| IC50 | SMILES |
| --- | --- |
| 7.3 mM | N[C@H](c1ccccc1)C(F)(F)C(=O)O |
| 11.6 mM | O=C(O)[C@H]1O[C@@H]1c1ccc(F)cc1 |
| 3 mM | COc1ccc([C@H]2O[C@@H]2C(=O)O)cc1 |

| SMILES | IC50 |
| --- | --- |
| O=C(O)[C@H]1O[C@@H]1c1ccccc1 | 5.8 mM |
